Test results: US20240358843A1, “LIGAND-DRUG CONJUGATE AND USE THEREOF” (priority 2021, published 2024)
pIC50: −log10 of the molar value. Starred links: 1 amine or outer side, 2 acyl side, 3 side chain; linkers in the order of their positions; H or OH if unused. Residues, ends and D or L forms follow the SMILES beside them. *: point of attachment. X1 = CC[C@@]1(O)C(=O)OCc2c1cc1n(c2=O)Cc2c-1nc1cc(F)c(C)c3c1c2[C@@H](NC(=O)CNC(=O)[C@H](Cc1ccccc1)NC(=O)CNC(=O)CNC(=O)CCCCC(=O)*)CC3; Pteroyl = Nc1nc2ncc(CNc3ccc(C(=O)*)cc3)nc2c(=O)[nH]1; γGlu = O=C(O)[C@H](CCC(=O)[*:2])N[*:1]

Assays:
[1] = Safety evaluation in ICR mice; assay type: in vivo
Method: Experiment purpose: Safety evaluation of CR194AX in ICR mice
Sample preparation: An appropriate amount of CR194AX was weighed and dissolved in PBS, and an appropriate amount of alkaline solution was added to formulate a sample mother solution with a neutral pH, which was filtered and diluted with filtered PBS to a sample solution with a working concentration for later use.
Experimental design: ICR mice (female, 6-8 weeks old, weighing about 25 g) were randomly grouped according to body weight, and the administration was started on the first day of grouping. The dosage was adjusted according to the latest body weight of the mice, and the administration was performed via tail vein injection at an administration volume of 10 μl/g. After grouping and administration, the effects of the drugs on the normal behaviors of the animals, including the activity, food intake and drinking status, body weight, eyes, hair, feces, secretions and other abnormalities of the experimental animals, were tested. The body weight of the mice was measured twice a week and observed for 8 days after the last administration. At the end of the experiment, the liver and spleen were weighed, and the liver, spleen, lung, kidney and stomach were taken out and placed in 10% formalin neutral fixative for HE analysis. Sample preparation: An appropriate amount of the compound was weighed and dissolved in PBS, and an appropriate amount of alkaline solution was added to formulate a sample mother solution with a neutral pH, which was filtered and diluted with filtered physiological saline to a sample solution with a working concentration for later use.

MIA PaCa2 cells = assay: Cell expansion inhibition assay (CCK-8, 72 h), Table 4; assay type: cell-based, human; conditions: without expression of FOLR1, read-out: MIAPACA-2 IC50
Method: (§1) Cell lines: HEK293T-FOLR1 (a stably transformed cell line overexpressing FOLR1), SK-BR-3 (human breast cancer cell with low expression of FOLR1) and MIA PaCa2 (human pancreatic cancer cell without expression of FOLR1).
(§2) Main reagents: 1640 folic acid-free medium, fetal bovine serum, penicillin-streptomycin solution, L-glutamine and CCK8.
(§3) (1) Cell plating: Cells were prepared in advance, digested with Trypsin, collected and counted. A complete cell culture medium was used to dilute SK-BR-3 cells to 3.0×10^4 cells/ml, HEK293T-FOLR1 cells to 1.5×10^4 cells/ml, and MIA PaCa-2 cells to 2.0×10^4 cells/ml. 100 μl of diluted cell solution was added to each well of 96-well plates, and negative and blank control wells were set on each plate. The 96-well plates added with the cells were placed in an incubator at 37° C., 5% CO2 for culturing overnight.
(§4) (2) Diluting and adding samples: The samples were serially diluted with medium (the starting concentration was 30 μM, 5-fold serial dilution), and a total of 10 concentration gradients were set. To each well of the 96-well plates that were cultured overnight, 50 μl of the diluted samples were added, with 3 replicate wells; negative controls and blank controls were set; and the plates were placed in an incubator at 37° C., 5% CO2 for culturing 72 h.
(§5) (3) Color development and reading plate: To each well, 15 μl (10% of the liquid volume in a well) of a color developing solution from CCK-8 was added; the plates were incubated at 37° C. for an appropriate time (try to keep the OD value in the range of 1.0-2.5); the covers of the 96-well plates were removed, and the plates were read at 450 nm on a microplate reader (Molecular Devices SpectraMax iD5).
(§6) (4) Data processing: The data was edited using SoftMax Pro 7.1 and a four-parameter fitting curve was plotted.

SK-BR-3 cells [2] = assay: as above; assay type: cell-based, human
Method: as §1, §2, §3, §4, §5, §6

HEK293T-FOLR1 cells [3] = assay: as above; assay type: cell-based, human
Method: as §1, §2, §3, §4, §5, §6

HEK293T cells = assay: Cell expansion inhibition assay (CCK-8, 72 h), Table 3; assay type: cell-based, human; conditions: no visible FOLR1 expression
Method: (§7) Cell lines: HEK293T-FOLR1 (a stably transformed cell line overexpressing FOLR1), SK-BR-3 (human breast cancer cell) and HEK293T (human embryonic kidney cell).
as §2
(§8) (1) Cell plating: Cells were prepared in advance, digested with Trypsin, collected and counted. A complete cell culture medium was used to dilute HEK293T-FOLR1 and HEK293T cells to 6×10^3 cells/ml, and dilute SK-BR-3 cells to 1.5×10^4 cells/ml. 100 μl of diluted cell solution was added to each well of 96-well plates, and negative and blank control wells were set on each plate. The 96-well plates added with the cells were placed in an incubator at 37° C., 5% CO2 for culturing overnight.
as §4, §5, §6

SK-BR-3 cells [4] = assay: as above; assay type: cell-based, human; conditions: FOLR1 low expression
Method: as §7, §2, §8, §4, §5, §6

HEK293T-FOLR1 cells [5] = assay: as above; assay type: cell-based, human; conditions: FOLR1 high expression
Method: as §7, §2, §8, §4, §5, §6

[6] = 50 mg/kg, qw*3 and q3d*6, tail vein

Question: Which “average weight loss of the mice” value ([1]; 25 mg/kg q3d*6, tail vein) does the source give for CC[C@@]1(O)C(=O)OCc2c1cc1n(c2=O)Cc2c-1nc1cc(F)c(C)c3c1c2[C@@H](NC(=O)CNC(=O)[C@H](Cc1ccccc1)NC(=O)CNC(=O)CNC(=O)CCCCC(=O)NCCCC[C@H](NC(=O)[C@H](CS)NC(=O)CC[C@H](NC(=O)c1ccc(NCc2cnc4nc(N)nc(O)c4n2)cc1)C(=O)O)C(=O)N[C@@H](CCC(=O)O)C(=O)N[C@@H](Cc1ccccc1)C(=O)N[C@@H](CC(C)C)C(=O)N[C@@H](Cc1c[nH]cn1)C(=O)N1CCC[C@H]1C(=O)N[C@@H](CO)C(=O)N[C@@H](CCCCN)C(=O)N[C@H](C(=O)N[C@@H](CC(=O)O)C(=O)N[C@@H](CC(C)C)C(=O)N1CCC[C@H]1C(=O)N[C@@H](CCCNC(=N)N)C(=O)O)C(C)C)CC3 [CR194AX] ({Pteroyl-γGlu}-CK(X1)EFLHPSKVDLPR-OH) here?
Answer: Its value is no more than 5%.

Question: And the “mortality during the administration” value ([1]; 25 mg/kg q3d*6, tail vein)?
Answer: The value was “no mice died”.

Question: And the tolerance ([1]; 25 mg/kg q3d*6, tail vein)?
Answer: The tolerance was “good tolerance”.

Question: What about the “average weight loss of the mice” value [1, 6] of the same molecule?
Answer: The value was no more than 10%.

Question: And the “mortality during the administration period” value [1, 6]?
Answer: Its value is “no mice died”.

Question: What about the tolerance [1, 6] of the same molecule?
Answer: Its tolerance is “good tolerance”.

Question: And the “weights of the liver and spleen compared with the negative control group” value ([1]; each administration group, end of experiment)?
Answer: The value was “no significant difference”.

Question: What does the source list for CC[C@@]1(O)C(=O)OCc2c1cc1n(c2=O)Cc2c-1nc1cc(F)c(C)c3c1c2[C@@H](N)CC3 [Dx]?
Answer: pIC50 (MIA PaCa2 cells): 8.26; pIC50 (SK-BR-3 cells [2]): 9.24; pIC50 (HEK293T-FOLR1 cells [3]): 9.00; pIC50 (HEK293T cells): 8.95; pIC50 (SK-BR-3 cells [4]): 9.22; pIC50 (HEK293T-FOLR1 cells [5]): 8.99

Question: What does the source list for CC[C@@]1(O)C(=O)OCc2c1cc1n(c2=O)Cc2c-1nc1cc(F)c(C)c3c1c2[C@@H](NC(=O)CO)CC3 [Dxd]?
Answer: pIC50 (MIA PaCa2 cells): 6.96; pIC50 (HEK293T-FOLR1 cells [3]): 8.78

Question: With CCc1c2c(nc3ccc(O)cc13)-c1cc3c(c(=O)n1C2)COC(=O)[C@]3(O)CC [SN38] as the molecule, how does the pIC50 (MIA PaCa2 cells) read?
Answer: Its pIC50 is 8.15.

Question: What about the pIC50 (SK-BR-3 cells [2]) of the same molecule?
Answer: Its pIC50 is 9.02.

Question: And the pIC50 (HEK293T-FOLR1 cells [3])?
Answer: Its pIC50 is 9.03.
